System: 282377-053-R-J1-PDC complex spheroid viability
Assay: Anticancer human tumor 282377-053-R-J1-PDC patient-derived colon adenocarcinoma cell line growth inhibition [POLQ]
Conditions: for IC50: curve of first compound; for viability, T/C: stronger effect = lower value
In short: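 Complex spheroid viability model combining PDC tumour cells with endothelial (HUVEC) and MSC stromal cells. Novobiocin, ART-558 or RP6685 were tested singly and in combination with standard and investigational anticancer drugs. Each was titrated in half-log steps from near clinical Cmax, or from 10 microM where Cmax was unknown.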

[1] = second compound 0.0316 µM, first compound 0.00316 µM
[2] = second compound 0.0316 µM, first compound 0.01 µM
[3] = second compound 0.0316 µM, first compound 0.0316 µM
[4] = second compound 0.0316 µM, first compound 0.1 µM
[5] = second compound 0.0316 µM, first compound 0.316 µM
[6] = second compound 0.0316 µM, first compound 1 µM
[7] = second compound 0.1 µM, first compound 0.00316 µM
[8] = second compound 0.1 µM, first compound 0.01 µM
[9] = second compound 0.1 µM, first compound 0.0316 µM
[10] = second compound 0.1 µM, first compound 0.1 µM
[11] = second compound 0.1 µM, first compound 0.316 µM
[12] = second compound 0.1 µM, first compound 1 µM
[13] = second compound 0.316 µM, first compound 0.00316 µM
[14] = second compound 0.316 µM, first compound 0.01 µM
[15] = second compound 0.316 µM, first compound 0.0316 µM
[16] = second compound 0.316 µM, first compound 0.1 µM
[17] = second compound 0.316 µM, first compound 0.316 µM
[18] = second compound 0.316 µM, first compound 1 µM
[19] = second compound 1 µM, first compound 0.00316 µM
[20] = second compound 1 µM, first compound 0.01 µM
[21] = second compound 1 µM, first compound 0.0316 µM
[22] = second compound 1 µM, first compound 0.1 µM
[23] = second compound 1 µM, first compound 0.316 µM
[24] = second compound 1 µM, first compound 1 µM
[25] = second compound 3.16 µM, first compound 0.00316 µM
[26] = second compound 3.16 µM, first compound 0.01 µM
[27] = second compound 3.16 µM, first compound 0.0316 µM
[28] = second compound 3.16 µM, first compound 0.1 µM
[29] = second compound 3.16 µM, first compound 0.316 µM
[30] = second compound 3.16 µM, first compound 1 µM
[31] = second compound 10 µM, first compound 0.00316 µM
[32] = second compound 10 µM, first compound 0.01 µM
[33] = second compound 10 µM, first compound 0.0316 µM
[34] = second compound 10 µM, first compound 0.1 µM
[35] = second compound 10 µM, first compound 0.316 µM
[36] = second compound 10 µM, first compound 1 µM
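Note: spheroids exposed to compounds for seven days.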
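Throughout, for viability, T/C: 100% = DMSO vehicle control viability.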

Question: Which IC50 (second compound 0.0316 µM) does the source give for `COc1cccc(OCCCN)c1-c1cc(Nc2cnc(C#N)cn2)n[nH]1` + COC1C(OC(N)=O)C(O)C(Oc2ccc3c(O)c(NC(=O)c4ccc(O)c(CC=C(C)C)c4)c(=O)oc3c2C)OC1(C)C here?
Answer: 124 nM

Question: And the IC50 (second compound 0.1 µM)?
Answer: 56.2 nM

Question: And the IC50 (second compound 0.316 µM)?
Answer: 92.6 nM

Question: What about the IC50 (second compound 1 µM) of the same compound?
Answer: 111 nM

Question: What about the IC50 (second compound 3.16 µM) of the same compound?
Answer: 148 nM

Question: And the IC50 (second compound 10 µM)?
Answer: 93.6 nM

Question: What about the viability, T/C [1] of the same compound?
Answer: 117%

Question: What about the viability, T/C [2] of the same compound?
Answer: 106%

Question: And the viability, T/C [3]?
Answer: 92.7%

Question: What about the viability, T/C [4] of the same compound?
Answer: 51.4%

Question: And the viability, T/C [5]?
Answer: 37.4%

Question: And the viability, T/C [6]?
Answer: 29.5%

Question: And the viability, T/C [7]?
Answer: 106%

Question: What about the viability, T/C [8] of the same compound?
Answer: 114%

Question: And the viability, T/C [9]?
Answer: 63.9%

Question: What about the viability, T/C [10] of the same compound?
Answer: 46.2%

Question: What about the viability, T/C [11] of the same compound?
Answer: 34.9%

Question: What about the viability, T/C [12] of the same compound?
Answer: 25.6%

Question: And the viability, T/C [13]?
Answer: 118%

Question: And the viability, T/C [14]?
Answer: 83.9%

Question: What about the viability, T/C [15] of the same compound?
Answer: 75.2%

Question: What about the viability, T/C [16] of the same compound?
Answer: 46.4%

Question: And the viability, T/C [17]?
Answer: 31.5%

Question: What about the viability, T/C [18] of the same compound?
Answer: 30.9%

Question: And the viability, T/C [19]?
Answer: 111%

Question: What about the viability, T/C [20] of the same compound?
Answer: 76%

Question: What about the viability, T/C [21] of the same compound?
Answer: 67.9%

Question: And the viability, T/C [22]?
Answer: 60.6%

Question: And the viability, T/C [23]?
Answer: 31%

Question: What about the viability, T/C [24] of the same compound?
Answer: 33.2%

Question: And the viability, T/C [25]?
Answer: 87.9%

Question: What about the viability, T/C [26] of the same compound?
Answer: 84.3%

Question: What about the viability, T/C [27] of the same compound?
Answer: 74.3%

Question: What about the viability, T/C [28] of the same compound?
Answer: 49.3%

Question: And the viability, T/C [29]?
Answer: 46.9%

Question: What about the viability, T/C [30] of the same compound?
Answer: 30.5%

Question: What about the viability, T/C [31] of the same compound?
Answer: 99.8%

Question: And the viability, T/C [32]?
Answer: 81.4%

Question: And the viability, T/C [33]?
Answer: 70.1%

Question: And the viability, T/C [34]?
Answer: 47.4%

Question: And the viability, T/C [35]?
Answer: 34.6%

Question: What about the viability, T/C [36] of the same compound?
Answer: 26.5%

Question: `CCc1c2c(nc3ccc(O)cc13)-c1cc3c(c(=O)n1C2)COC(=O)[C@]3(O)CC` + Cc1cccc(N(C)C(=O)C2C(O)CCN2c2nc(C)cc(C(F)(F)F)c2C#N)c1 was tested. Which IC50 (second compound 0.0316 µM) did it give?
Answer: 50.3 nM

Question: What about the IC50 (second compound 0.1 µM) of the same compound?
Answer: 180 nM

Question: And the IC50 (second compound 0.316 µM)?
Answer: 71.5 nM

Question: And the IC50 (second compound 1 µM)?
Answer: 116 nM

Question: What about the IC50 (second compound 3.16 µM) of the same compound?
Answer: 70.2 nM

Question: What about the IC50 (second compound 10 µM) of the same compound?
Answer: 57.5 nM

Question: What about the viability, T/C [1] of the same compound?
Answer: 122%

Question: And the viability, T/C [2]?
Answer: 76.2%

Question: And the viability, T/C [3]?
Answer: 51.8%

Question: And the viability, T/C [4]?
Answer: 49.2%

Question: What about the viability, T/C [5] of the same compound?
Answer: 40.1%

Question: And the viability, T/C [6]?
Answer: 23.2%

Question: And the viability, T/C [7]?
Answer: 97.1%

Question: What about the viability, T/C [8] of the same compound?
Answer: 81.6%

Question: What about the viability, T/C [9] of the same compound?
Answer: 72%

Question: And the viability, T/C [10]?
Answer: 62.4%

Question: And the viability, T/C [11]?
Answer: 41.5%

Question: And the viability, T/C [12]?
Answer: 21.8%

Question: What about the viability, T/C [13] of the same compound?
Answer: 102%

Question: And the viability, T/C [14]?
Answer: 74.9%

Question: What about the viability, T/C [15] of the same compound?
Answer: 54.4%

Question: And the viability, T/C [16]?
Answer: 52%

Question: What about the viability, T/C [17] of the same compound?
Answer: 41.4%

Question: And the viability, T/C [18]?
Answer: 25.7%

Question: And the viability, T/C [19]?
Answer: 110%

Question: What about the viability, T/C [20] of the same compound?
Answer: 86.8%

Question: What about the viability, T/C [21] of the same compound?
Answer: 53.5%

Question: What about the viability, T/C [22] of the same compound?
Answer: 51.6%

Question: What about the viability, T/C [23] of the same compound?
Answer: 44.8%

Question: And the viability, T/C [24]?
Answer: 17.2%

Question: And the viability, T/C [25]?
Answer: 104%

Question: And the viability, T/C [26]?
Answer: 69.3%

Question: What about the viability, T/C [27] of the same compound?
Answer: 63.5%

Question: What about the viability, T/C [28] of the same compound?
Answer: 44.4%

Question: What about the viability, T/C [29] of the same compound?
Answer: 40.8%

Question: And the viability, T/C [30]?
Answer: 22.5%

Question: And the viability, T/C [31]?
Answer: 106%

Question: What about the viability, T/C [32] of the same compound?
Answer: 87.5%

Question: What about the viability, T/C [33] of the same compound?
Answer: 49.5%

Question: And the viability, T/C [34]?
Answer: 42.5%

Question: What about the viability, T/C [35] of the same compound?
Answer: 37.4%

Question: What about the viability, T/C [36] of the same compound?
Answer: 16.7%

From PubChem BioAssay AID1963852 (Molecular Pharmacology Branch, DTP, NCI, 2024)
